*1 amine or outer side, *2 acyl side, *3 side chain or, on linkers, in order; H or OH if unused. Where a SMILES comes first, the peptide text is derived from it. Bridges are numbered along the chain shown (N, C = ends). [ ]: non-standard residue; d: D form. The star is where a group is joined. ξ: configuration not given here. Phe(3-CF3) = N[C@@H](Cc1cccc(C(F)(F)F)c1)C(=O)O; Ala(morpholin-4-yl) = N[C@@H](CN1CCOCC1)C(=O)O; Phe(4-COOH) = N[C@@H](Cc1ccc(C(=O)O)cc1)C(=O)O; Bip = N[C@@H](Cc1ccc(-c2ccccc2)cc1)C(=O)O; Phe(3-Me) = Cc1cccc(C[C@H](N)C(=O)O)c1; γGlu = O=C(O)[C@H](CCC(=O)[*:2])N[*:1]; βAsp = O=C(O)[C@H](CC(=O)[*:2])N[*:1]; NH(CH2)12COOH = O=C(O)CCCCCCCCCCCCN*; Val(3-OH) = CC(C)(O)[C@H](N)C(=O)O; hArg = N=C(N)NCCCC[C@H](N)C(=O)O; Cha = N[C@@H](CC1CCCCC1)C(=O)O; Cit = NC(=O)NCCC[C@H](N)C(=O)O; Ile(3ξ) = CCC(C)[C@H](N)C(=O)O; Thr(3ξ) = CC(O)[C@H](N)C(=O)O; dCba = N[C@H](CC1CCC1)C(=O)O; hSer = N[C@@H](CCO)C(=O)O; Carboxymethyl = O=C(O)C*; NMeA = CN[C@@H](C)C(=O)O; Orn = NCCC[C@H](N)C(=O)O; Aun = NCCCCCCCCCCC(=O)O; Dab = NCC[C@H](N)C(=O)O; AEEA = NCCOCCOCC(=O)O; CF3 = FC(F)(F)*; Sar = CNCC(=O)O
These molecules were tested against T1, PD-1/PD-L1 interaction (PE-labeled human PD-L1-Ig binding to Jurkat cell line over-expressing human PD-1) (Homo sapiens, UniProt Q15116) (assay: Jurkat-PD-1 Cell Binding High-Content Screening Assay (CBA)). Settings: Jurkat-hPD-1 cells, PE-labeled PD-L1-Ig 20 nM final; read-out: Jurkat HPD1 PDL1 IC50.
T1 construct: expressed in transfected cells; host or cells: Jurkat
T1 sequence (Q15116 25-288): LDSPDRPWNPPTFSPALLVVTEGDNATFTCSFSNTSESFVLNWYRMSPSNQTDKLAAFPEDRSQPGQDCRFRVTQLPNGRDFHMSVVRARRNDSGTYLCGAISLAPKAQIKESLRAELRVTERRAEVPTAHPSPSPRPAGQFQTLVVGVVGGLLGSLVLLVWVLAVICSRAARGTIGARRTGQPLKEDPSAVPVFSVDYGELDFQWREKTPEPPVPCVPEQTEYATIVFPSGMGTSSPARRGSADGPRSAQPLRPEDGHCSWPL
Summary of the method: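 Binding of 20 nM (final) PE-tagged PD-L1-Ig to compound-pretreated Jurkat-hPD-1 cells was measured by high-content imaging after 1 h. Pretreatment ran 2 h at 37 °C in DMEM with 10% fetal calf serum.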
`Cc1cccc(C[C@@H]2NC(=O)[C@H](CC(=O)O)NC(=O)[C@H](Cc3ccc(OCC(=O)O)cc3)NC(=O)[C@H](C(C)O)NC(=O)CSC[C@@H](C(=O)N[C@@H](CCN)C(=O)NCCCCCCCCCCC(=O)O)NC(=O)[C@H](C(C)O)NC(=O)[C@H](C(C)C)NC(=O)[C@H](CC3CCCCC3)NC(=O)[C@H](CCN)NC(=O)[C@@H](CC(C)C)NC(=O)[C@H](C)N(C)C(=O)[C@H](Cc3ccc(OCC(=O)O)cc3)NC(=O)[C@H](Cc3ccc(-c4ccccc4)cc3)NC(=O)[C@H](Cc3ccc(C(=O)O)cc3)NC2=O)c1` (stereo partly drawn) [Example 2347] ({CH2CO}-[Thr(3ξ)]Y(Carboxymethyl)D[Phe(3-Me)][Phe(4-COOH)][Bip]Y(Carboxymethyl)[NMeA][dL][Dab][Cha]V[Thr(3ξ)]C[Dab][Aun]-OH; thioether N-14) was tested, and the IC50 was 9.3 nM. `CC(C)C[C@@H]1NC(=O)[C@H](Cc2c[nH]c3ccccc23)NC(=O)[C@H](CC(=O)O)NC(=O)[C@H](Cc2ccc(C(=O)O)cc2)NC(=O)[C@H](Cc2ccc(OCC(=O)O)cc2)NC(=O)CSC[C@@H](C(=O)N[C@@H](CCCN)C(=O)NCCOCCOCC(=O)NCCCCCCCCCCC(=O)O)NC(=O)[C@H](CO)NC(=O)[C@H](C(C)C)NC(=O)[C@H](CC2CCCCC2)NC(=O)[C@H](CCN)NC(=O)[C@@H](CC2CCC2)NC(=O)[C@H](C)N(C)C(=O)[C@H](C(C)C)NC(=O)[C@H](Cc2ccc(-c3ccccc3)cc2)NC1=O` [Example 1249] ({CH2CO}-Y(Carboxymethyl)[Phe(4-COOH)]DWL[Bip]V[NMeA][dCba][Dab][Cha]VSC[Orn][AEEA][Aun]-OH; thioether N-14) gave an IC50 of 29.5 nM. Molecule `CC(C)C[C@H]1NC(=O)[C@H](C)N(C)C(=O)[C@H](CCCNC(N)=O)NC(=O)[C@H](Cc2ccc(-c3ccccc3)cc2)NC(=O)[C@H](Cc2ccc(C(=O)O)cc2)NC(=O)[C@H](Cc2cccc(C(F)(F)F)c2)NC(=O)[C@H](CC(=O)O)NC(=O)[C@H](Cc2ccc(OCC(=O)O)cc2)NC(=O)[C@H](CN2CCOCC2)NC(=O)CSC[C@@H](C(=O)N[C@@H](CCN)C(=O)NCCOCCOCC(=O)N[C@@H](CCC(=O)NCCOCCOCC(=O)NCCCCCCCCCCCCC(=O)O)C(=O)O)NC(=O)[C@H](CCC(=O)O)NC(=O)[C@H](C(C)C)NC(=O)[C@H](CC2CCCCC2)NC(=O)[C@H](CCN)NC1=O` [Example 1176] ({CH2CO}-[Ala(morpholin-4-yl)]Y(Carboxymethyl)D[Phe(3-CF3)][Phe(4-COOH)][Bip][Cit][NMeA][dL][Dab][Cha]VEC[Dab][AEEA][γGlu][AEEA]-{NH(CH2)12COOH}; thioether N-14) has an IC50 of 15.6 nM. `CCC(C)[C@@H]1NC(=O)[C@H](Cc2ccc(-c3ccccc3)cc2)NC(=O)[C@H](CC(C)C)NC(=O)[C@H](Cc2c[nH]c3ccccc23)NC(=O)[C@H](CC(=O)O)NC(=O)[C@H](Cc2ccc(OCC(=O)O)cc2)NC(=O)[C@H](CCCCNC(=N)N)NC(=O)CSC[C@@H](C(=O)NCCOCCOCC(=O)N[C@@H](CCC(=O)NCCCCCCCCCCC(=O)O)C(=O)O)NC(=O)[C@H](CO)NC(=O)[C@H](C(C)C)NC(=O)[C@H](CC(C)C)NC(=O)[C@H](CCN)NC(=O)[C@@H](CC(C)C)NC(=O)[C@H](C)N(C)C1=O` (stereo partly drawn) [Example 2044] ({CH2CO}-[hArg]Y(Carboxymethyl)DWL[Bip][Ile(3ξ)][NMeA][dL][Dab]LVSC[AEEA][γGlu][Aun]-OH; thioether N-14) was tested, and the IC50 was 67 nM. In the case of `CC(C)C[C@@H]1NC(=O)[C@H](Cc2c[nH]c3ccccc23)NC(=O)[C@H](CC(=O)O)NC(=O)[C@H](Cc2ccc(OCC(=O)O)cc2)NC(=O)[C@H](CCCCNC(=N)N)NC(=O)CSC[C@@H](C(=O)N[C@@H](CC(N)=O)C(=O)NCCOCCOCC(=O)N[C@@H](CC(=O)NCCCCCCCCCCC(=O)O)C(=O)O)NC(=O)[C@H](CO)NC(=O)[C@H](C(C)C)NC(=O)[C@H](CC(C)C)NC(=O)[C@H](CC(N)=O)NC(=O)[C@@H](CC(C)C)NC(=O)[C@H](C)N(C)C(=O)[C@H](C(C)C)NC(=O)[C@H](Cc2ccc(-c3ccccc3)cc2)NC1=O` [Example 2012] ({CH2CO}-[hArg]Y(Carboxymethyl)DWL[Bip]V[NMeA][dL]NLVSCN[AEEA][βAsp][Aun]-OH; thioether N-14), the IC50 is reported as 21 nM. Molecule `Cc1cccc(C[C@@H]2NC(=O)[C@H](CC(=O)O)NC(=O)[C@H](Cc3ccc(OCC(=O)O)cc3)NC(=O)[C@H]([C@@H](C)O)NC(=O)CSC[C@@H](C(=O)N[C@@H](CCN)C(=O)NCCCCCCCCCCC(=O)O)NC(=O)[C@H](CCC(=O)O)NC(=O)[C@H](C(C)(C)O)NC(=O)[C@H](CC3CCCCC3)NC(=O)[C@H](CCN)NC(=O)[C@@H](CC(C)C)NC(=O)[C@H](C)N(C)C(=O)[C@H](Cc3ccc(OCC(=O)O)cc3)NC(=O)[C@H](Cc3ccc(-c4ccccc4)cc3)NC(=O)[C@H](Cc3ccc(OCC(=O)O)cc3)NC2=O)c1` [Example 1418] ({CH2CO}-TY(Carboxymethyl)D[Phe(3-Me)]Y(Carboxymethyl)[Bip]Y(Carboxymethyl)[NMeA][dL][Dab][Cha][Val(3-OH)]EC[Dab][Aun]-OH; thioether N-14) has an IC50 of 37.1 nM. `Cc1cccc(C[C@@H]2NC(=O)[C@H](CC(=O)O)NC(=O)[C@H](Cc3ccc(OCC(=O)O)cc3)NC(=O)[C@H](C(C)O)NC(=O)CSC[C@@H](C(=O)N(C)CC(=O)NCCCCCCCCCCC(=O)O)NC(=O)[C@H](CCC(=O)O)NC(=O)[C@H](C(C)C)NC(=O)[C@H](CC3CCCCC3)NC(=O)[C@H](CCN)NC(=O)[C@@H](CC(C)C)NC(=O)[C@H](C)N(C)C(=O)[C@H](C(C)C)NC(=O)[C@H](Cc3ccc(-c4ccccc4)cc3)NC(=O)[C@H](Cc3ccc(O)cc3)NC2=O)c1` (stereo partly drawn) [Example 2263] ({CH2CO}-[Thr(3ξ)]Y(Carboxymethyl)D[Phe(3-Me)]Y[Bip]V[NMeA][dL][Dab][Cha]VEC[Sar][Aun]-OH; thioether N-14) showed an IC50 of 334 nM. In the case of `Cc1cccc(C[C@@H]2NC(=O)[C@H](CC(=O)O)NC(=O)[C@H](Cc3ccc(OCC(=O)O)cc3)NC(=O)[C@H](C(C)O)NC(=O)CSC[C@@H](C(=O)N[C@@H](CCN)C(=O)NCCCCCCCCCCC(=O)O)NC(=O)[C@H](CCO)NC(=O)[C@H](C(C)C)NC(=O)[C@H](CC3CCCCC3)NC(=O)[C@H](CCN)NC(=O)[C@@H](CC(C)C)NC(=O)[C@H](C)N(C)C(=O)[C@H](Cc3ccc(OCC(=O)O)cc3)NC(=O)[C@H](Cc3ccc(-c4ccccc4)cc3)NC(=O)[C@H](CCCNC(N)=O)NC2=O)c1` (stereo partly drawn) [Example 2348] ({CH2CO}-[Thr(3ξ)]Y(Carboxymethyl)D[Phe(3-Me)][Cit][Bip]Y(Carboxymethyl)[NMeA][dL][Dab][Cha]V[hSer]C[Dab][Aun]-OH; thioether N-14), the IC50 is reported as 30.1 nM.

Same assay, conditions: PE-labeled PD-L1-Ig 20 nM final, Jurkat-hPD-1 cells; read-out: Jurkat HPD1 PDL1 IC50
Work on `CCC(C)[C@@H]1NC(=O)[C@H](Cc2ccc(-c3ccccc3)cc2)NC(=O)[C@H](C(C)C)NC(=O)[C@H](Cc2c[nH]c3ccccc23)NC(=O)[C@H](CC(=O)O)NC(=O)[C@H](Cc2ccc(OCC(=O)O)cc2)NC(=O)[C@H](Cc2ccc(OCC(=O)O)cc2)NC(=O)CSC[C@@H](C(=O)N[C@@H](CCN)C(=O)NCCOCCOCC(=O)NCCCCCCCCCCC(=O)O)NC(=O)[C@H](CCCCNC(C)=O)NC(=O)[C@H](C(C)(C)O)NC(=O)[C@H](CC2CCCCC2)NC(=O)[C@H](Cc2cnc[nH]2)NC(=O)[C@@H](CC(C)C)NC(=O)[C@H](C)N(C)C1=O` (stereo partly drawn) [Example 2588] ({CH2CO}-Y(Carboxymethyl)Y(Carboxymethyl)DWV[Bip][Ile(3ξ)][NMeA][dL]H[Cha][Val(3-OH)]K(Ac)C[Dab][AEEA][Aun]-OH; thioether N-14) yielded an IC50 of 4.2 nM. Molecule `CC(=O)NCCCC[C@@H]1NC(=O)[C@H](C(C)(C)O)NC(=O)[C@H](CC2CCCCC2)NC(=O)[C@H](CCN)NC(=O)[C@@H](CC(C)C)NC(=O)[C@H](C)N(C)C(=O)[C@H](CCC(N)=O)NC(=O)[C@H](Cc2ccc(-c3ccccc3)cc2)NC(=O)[C@H](Cc2ccc(C(=O)O)cc2)NC(=O)[C@H](Cc2cccc(C)c2)NC(=O)[C@H](CC(=O)O)NC(=O)[C@H](Cc2ccc(OCC(=O)O)cc2)NC(=O)[C@H](Cc2ccc(OC(F)(F)F)cc2)NC(=O)CSC[C@@H](C(=O)N[C@@H](CCN)C(=O)NCCCCCCCCCCCCC(=O)O)NC1=O` [Example 2620] ({CH2CO}-Y(CF3)Y(Carboxymethyl)D[Phe(3-Me)][Phe(4-COOH)][Bip]Q[NMeA][dL][Dab][Cha][Val(3-OH)]K(Ac)C[Dab]-{NH(CH2)12COOH}; thioether N-14) has an IC50 of 72 nM. With `CC(C)C[C@H]1NC(=O)[C@H](C)N(C)C(=O)[C@H](CCC(N)=O)NC(=O)[C@H](Cc2ccc(-c3ccccc3)cc2)NC(=O)[C@H](Cc2ccc(OCC(=O)O)cc2)NC(=O)[C@H](Cc2cccc(C(F)(F)F)c2)NC(=O)[C@H](CC(=O)O)NC(=O)[C@H](Cc2ccc(OCC(=O)O)cc2)NC(=O)[C@H](Cc2cnc[nH]2)NC(=O)CSC[C@@H](C(=O)N[C@@H](CCN)C(=O)NCCCCCCCCCCCCC(=O)O)NC(=O)[C@H](CCC(=O)O)NC(=O)[C@H](C(C)(C)O)NC(=O)[C@H](CC2CCCCC2)NC(=O)[C@H](CCN)NC1=O` [Example 2630] ({CH2CO}-HY(Carboxymethyl)D[Phe(3-CF3)]Y(Carboxymethyl)[Bip]Q[NMeA][dL][Dab][Cha][Val(3-OH)]EC[Dab]-{NH(CH2)12COOH}; thioether N-14) the IC50 was 9.5 nM. In the case of `Cc1cccc(C[C@@H]2NC(=O)[C@H](CC(=O)O)NC(=O)[C@H](Cc3ccc(OCC(=O)O)cc3)NC(=O)[C@H](C(C)O)NC(=O)CSC[C@@H](C(=O)N[C@@H](CCN)C(=O)NCCCCCCCCCCC(=O)O)NC(=O)[C@H](CO)NC(=O)[C@H](C(C)(C)O)NC(=O)[C@H](CC3CCCCC3)NC(=O)[C@H](CCN)NC(=O)[C@@H](CC(C)C)NC(=O)[C@H](C)N(C)C(=O)[C@H](Cc3ccc(OCC(=O)O)cc3)NC(=O)[C@H](Cc3ccc(-c4ccccc4)cc3)NC(=O)[C@H](Cc3ccc(C(=O)O)cc3)NC2=O)c1` (stereo partly drawn) [Example 2430] ({CH2CO}-[Thr(3ξ)]Y(Carboxymethyl)D[Phe(3-Me)][Phe(4-COOH)][Bip]Y(Carboxymethyl)[NMeA][dL][Dab][Cha][Val(3-OH)]SC[Dab][Aun]-OH; thioether N-14), the IC50 is reported as 34.2 nM.

From US20260070945A1, “MACROCYCLIC IMMUNOMODULATORS” (Bristol-Myers Squibb Company, priority 2022, published 2026)
